The record followed here is patent publication US10154991B2, “Anesthetic compounds and related methods of use” (priority 2012, dated 2018).

As a reminder, the half-life is how long it takes for the measured level to halve. Usually EC50 stands for the midpoint of the concentration-response curve.

Where “and” joins values, the source holds several entries; their conditions need not be identical. Equal entries are not always repeated.

For series [1], the system named is ICR mice. Briefly: In vivo sedative/hypnotic testing, IV bolus, mice. More on the design: species or system mouse. The conditions noted are these: mice.
Series [2] deals with GABAA receptor channel. Briefly: radioligand binding to the GABAA receptor channel. The following applies: 10 μM.
Series [3] relates to adrenal cortisol production. Here is the method:
Dexamethasone (0.01 mg/kg) was administered two hours before the first administration of ACTH and re-administered every 2 hours to maintain suppression. Dexamethasone pretreatment suppresses the hypothalamo-hypophyseal axis to prevent endogenous ACTH release and subsequent adrenocortical steroid secretion. […] Synthetic ACTH (Synacthen, 250 μg) was then administered at times after test substance administration to evaluate the effects of the test substance on the release of the adrenal steroid, cortisol.
All study methods described for Study 1 were repeated, except the ACTH administration at the end of infusion was omitted.

Series [4] is described as follows: in vivo. The following applies: rat.
The nature of series [5]: Pharmacokinetics in dogs, IV bolus and bolus plus infusion. The series is classed as in vivo, dog.
Series [6] relates to Sprague-Dawley rats. Kind of series: In vivo sedative/hypnotic testing, IV bolus, rats. The following applies: rats. Details: species or system rat.
Series [7] in a line: In vitro metabolic half-life of hypnotics in rat blood. Format: in vitro ADME. The following applies: rat. Here is the method: On the day of study, whole blood was drawn from the femoral venous catheters of 3 Sprague-Dawley rats (1-2 ml/rat), immediately anticoagulated with heparin (38 U), pooled, and stored on ice. A 1 ml aliquot of blood was warmed at 37° C. for 5 minutes and hypnotic (from a 40 mM in dimethyl sulfoxide stock solution) was added to a final concentration of 100 μM. After the desired incubation time, a 150 μl sample was removed and the metabolic reaction was quenched with 150 μl acetonitrile (Sigma-Aldrich, St. Louis, Mo.). Zero time point samples were prepared by adding 150 μl acetonitrile to blood prior to adding hypnotic (from a 4 mM in dimethyl sulfoxide stock solution). The quenched samples were centrifuged and the resultant supernatant separated and stored at −20° C. until analyzed. Hypnotic concentrations in thawed samples were determined by high performance liquid chromatography using a Varian Prostar system with a 4.6×250 mm Proto 300 C18 column (Nest Group, Southborough, Mass.) with the UV detector set at 240 nm.

The target in series [8] is T1, human α1(L264T), β2 and γ2L subunits of the GABAA receptor (Homo sapiens, UniProt P14867+P47870, L291T).
T1 construct: expressed in transfected cells; host or cells: Xenopus oocytes
T1 sequence (P14867 28-456 L291T): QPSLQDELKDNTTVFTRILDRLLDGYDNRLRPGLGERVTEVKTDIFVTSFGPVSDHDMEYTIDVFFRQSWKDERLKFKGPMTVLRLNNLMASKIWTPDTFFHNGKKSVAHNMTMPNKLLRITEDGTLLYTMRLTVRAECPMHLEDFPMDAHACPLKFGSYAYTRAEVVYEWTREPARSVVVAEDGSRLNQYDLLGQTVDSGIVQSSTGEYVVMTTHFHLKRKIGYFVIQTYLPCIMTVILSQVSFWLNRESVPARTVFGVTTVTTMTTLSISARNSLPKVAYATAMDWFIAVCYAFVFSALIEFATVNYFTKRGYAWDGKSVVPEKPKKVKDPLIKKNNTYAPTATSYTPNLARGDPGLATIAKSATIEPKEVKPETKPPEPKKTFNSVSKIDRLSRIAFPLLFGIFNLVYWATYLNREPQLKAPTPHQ
T1 sequence (P47870 25-512 limits assumed): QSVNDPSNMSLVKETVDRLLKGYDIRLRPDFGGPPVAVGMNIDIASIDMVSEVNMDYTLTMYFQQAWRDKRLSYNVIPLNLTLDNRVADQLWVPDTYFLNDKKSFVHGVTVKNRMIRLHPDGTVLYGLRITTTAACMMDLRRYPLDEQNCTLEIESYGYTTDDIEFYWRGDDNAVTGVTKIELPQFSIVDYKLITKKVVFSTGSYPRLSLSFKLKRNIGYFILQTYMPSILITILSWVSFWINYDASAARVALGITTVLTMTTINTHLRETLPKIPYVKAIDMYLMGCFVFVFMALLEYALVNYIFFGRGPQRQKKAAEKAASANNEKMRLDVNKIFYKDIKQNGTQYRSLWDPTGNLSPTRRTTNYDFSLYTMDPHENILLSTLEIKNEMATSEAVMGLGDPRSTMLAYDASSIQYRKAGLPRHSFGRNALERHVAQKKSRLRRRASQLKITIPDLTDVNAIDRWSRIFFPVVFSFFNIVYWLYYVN
T1 sequence (P18507 40-475 partner): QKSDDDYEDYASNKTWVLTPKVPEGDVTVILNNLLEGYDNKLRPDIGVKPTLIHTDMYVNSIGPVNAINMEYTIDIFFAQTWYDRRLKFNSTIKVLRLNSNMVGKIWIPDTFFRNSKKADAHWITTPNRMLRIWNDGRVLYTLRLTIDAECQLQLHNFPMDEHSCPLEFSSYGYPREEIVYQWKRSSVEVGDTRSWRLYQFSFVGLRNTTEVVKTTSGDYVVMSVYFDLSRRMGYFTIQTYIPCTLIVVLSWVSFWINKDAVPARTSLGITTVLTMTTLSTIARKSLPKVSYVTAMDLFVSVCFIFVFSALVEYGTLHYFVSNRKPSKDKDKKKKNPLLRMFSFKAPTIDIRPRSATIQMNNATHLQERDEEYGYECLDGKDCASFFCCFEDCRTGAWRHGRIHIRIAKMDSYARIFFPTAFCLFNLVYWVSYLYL
Briefly: GABAA receptor current in Xenopus oocytes, 2-electrode voltage clamp. The series is classed as cell-based. The protocol:
Cyclopropyl-MOC-metomidate induces anesthesia by acting as a positive allosteric modulator of the γ-aminobutyric acid (GABA) type A (GABAA) receptor. Cyclopropyl-MOC-metomidate and its principle metabolite, CPM-acid, were evaluated for their ability to potentiate activation of GABAA receptor current in Xenopus oocytes expressing the human α1(L264T), β2 and γ2L subunits of the GABAA receptor using established methods (Ge et al., 2011). The […] mutant was used rather than wild-type GABAA receptor because it is directly activated by anesthetics, allowing a simpler assessment of the drug potency without the need for concomitant activation by GABA. Anesthetic potency on this mutated GABAA receptor is similar to that on wild-type receptors. Currents were recorded using conventional 2-electrode voltage clamp technique at a holding potential of −50 mV. Oocytes were placed in a 0.04-mL recording chamber and constantly perfused at a rate of 4-6 mL/min. The current response to ABP-700 or CPM-acid was normalized to that produced by 100 μM GABA in the same oocyte and data presented as mean±SD from 3-6 oocytes.

The nature of series [9]: Pharmacokinetics in rats, IV bolus and bolus plus infusion.
The mark [10] stands for this setting: bolus and continuous infusion, listed as cyclopropyl-MOC-metomidate.

As for `COC(=O)C1(OC(=O)c2cncn2[C@H](C)c2ccccc2)CC1` [Cyclopropyl- methoxycarbonyl metomidate, cyclopropyl-methoxycarbonyl metomidate], the “slope of duration of LORR vs logarithm of dose” value in [1] is reported as “approximately 7”; in [6], “approximately 10”. For the same molecule, the “effect on binding of [3H]-flunitrazepam” value in [2] is listed as “no effect”. For the same molecule, the “effect on binding of [3H]-muscimol” value in [2] was “no effect”. Further, the “ACTH-induced plasma cortisol response” value in series [3] (Study 1, dogs, after 120-minute infusion) was “cortisol response to the first ACTH stimulus was inhibited, but the response to the second and third ACTH stimuli at 90 and 180 minute post-infusion were robust”. Also, in series [3] (dogs), the “return of normal adrenal responsiveness after cessation of infusion” value is 1.5 to 3 h. The concentration at 24 h in series [4] (both, iv) is below 0.1 ng/mL; in [5] (both sexes, dog, in vivo, IV bolus, read-out: level in 24-hour PK samples (below level of quantification)) it was below 0.1 ng/mL. Moreover, the half-life in series [4] (both, iv) is around 10 min; in series [4] it was around 20 min; in [5] (both sexes, dog, in vivo, IV bolus, read-out: secondary terminal elimination half-life) it was 5 to 10 min; in series [5] (dog, in vivo, read-out: half-life of secondary phase of decline after infusion) it was around 20 min. For the same molecule, the “first-phase decline of levels” value is above 10 fold in series [5] (IV bolus 0.25-12 mg/kg, first 5-10 minutes) and above 10 fold in [9] (IV bolus 4-16 mg/kg, first 5 minutes). The “venous blood concentration when sedated/anesthetized” value is > 250 ng/mL and > 0.8 μM in [5] (setting [10]); > 250 ng/mL and > 0.8 μM in series [9] (setting [10]). For the same molecule, the “decline of levels after discontinuation of infusion” value in series [5] (first 10-30 minutes after infusion) and in series [9] (first 30 minutes after 60-minute infusion) was around 50 fold each time. The half-life at 100 μM in series [7] (Sprague-Dawley, pooled heparinised whole blood, rat blood, 37° C., 100 μM, read-out: Blood Half-Life (95% CI)) turned out to be 0.57 min. In addition, in series [7], the “in vitro metabolic half-life compared with methoxycarbonyl etomidate and etomidate” value was “intermediate between those of methoxycarbonyl etomidate and etomidate”. Also, in [8], the EC50 stood at 5.8 ± 1.1 µM. For the same molecule, the “concentration having minimal effects on current” value in series [8] was around 0.3 µM.
